From patent publication US10112941B2, “Tricyclic compounds as anticancer agents” (BRISTOL-MYERS SQUIBB COMPANY, priority 2013, dated 2018)

Molecular target: BRD4 (Homo sapiens, UniProt O60885)
Assay: Time Resolved Fluorescence Resonance Energy Transfer (TR-FRET) binding assay, BRD4
Settings: one of the FRET assays described; read-out: FRET BRD4 IC50

Structure (SMILES)	IC50 [nM]
Cc1nnn(C)c1-c1cnc2c3ccc(C(C)(C)O)cc3n(C(c3ccc(F)c(F)c3)C3CCOCC3)c2c1 (single isomer, unassigned) [Example 96, 2-{5-[(3,4-Difluorophenyl)(oxan-4-yl)methyl]-3-(dimethyl-1H-1,2,3-triazol-5-yl)-5H-pyrido[3,2-b]indol-7-yl}propan-2-ol]	< 25
Cc1nnn(C)c1-c1cnc2c3ccc(C(C)(C)O)cc3n(C(c3ccc(F)c(F)c3)C3CCOCC3)c2c1 (single isomer, unassigned) [Example 97, 2-{5-[(3,4-Difluorophenyl)(oxan-4-yl)methyl]-3-(dimethyl-1H-1,2,3-triazol-5-yl)-5H-pyrido[3,2-b]indol-7-yl}propan-2-ol]	< 5
Cc1nnn(C)c1-c1cnc2c3ccc(C(C)(C)O)cc3n(C(c3cc(F)cc(F)c3)C3CCOCC3)c2c1 (single isomer, unassigned) [Example 98, 2-{5-[(3,5-Difluorophenyl)(oxan-4-yl)methyl]-3-(dimethyl-1H-1,2,3-triazol-5-yl)-5H-pyrido[3,2-b]indol-7-yl}propan-2-ol]	< 5
Cc1nnn(C)c1-c1cnc2c3ccc(C(C)(C)O)cc3n(C(c3cc(F)cc(F)c3)C3CCOCC3)c2c1 (single isomer, unassigned) [Example 99, 2-{5-[(3,5-Difluorophenyl)(oxan-4-yl)methyl]-3-(dimethyl-1H-1,2,3-triazol-5-yl)-5H-pyrido[3,2-b]indol-7-yl}propan-2-ol]	< 5
Cc1nnn(C)c1-c1cnc2c3ccc(C(C)(C)O)cc3n(C(c3cccc(F)c3)C3CCOCC3)c2c1 (single isomer, unassigned) [Example 100, 2-[3-(Dimethyl-1H-1,2,3-triazol-5-yl)-5-[(3-fluorophenyl)(oxan-4-yl)methyl]-5H-pyrido[3,2-b]indol-7-yl]propan-2-ol]	< 5
Cc1nnn(C)c1-c1cnc2c3ccc(C(C)(C)O)cc3n(C(c3cccc(F)c3)C3CCOCC3)c2c1 (single isomer, unassigned) [Example 101, 2-[3-(Dimethyl-1H-1,2,3-triazol-5-yl)-5-[(3-fluorophenyl)(oxan-4-yl)methyl]-5H-pyrido[3,2-b]indol-7-yl]propan-2-ol]	< 25
Cc1nnn(C)c1-c1cnc2c3ccc(C(C)(C)O)cc3n(C(c3c(F)cc(F)cc3F)C3CCOCC3)c2c1 (single isomer, unassigned) [Example 102, 2-[3-(Dimethyl-1H-1,2,3-triazol-5-yl)-5-[oxan-4-yl(2,4,6-trifluorophenyl)methyl]-5H-pyrido[3,2-b]indol-7-yl]propan-2-ol]	< 5
Cc1nnn(C)c1-c1cnc2c3ccc(C(C)(C)O)cc3n(C(c3c(F)cc(F)cc3F)C3CCOCC3)c2c1 (single isomer, unassigned) [Example 103, 2-[3-(Dimethyl-1H-1,2,3-triazol-5-yl)-5-[oxan-4-yl(2,4,6-trifluorophenyl)methyl]-5H-pyrido[3,2-b]indol-7-yl]propan-2-ol]	< 5
Cc1nnn(C)c1-c1cnc2c3c(F)cc(C(C)(C)O)cc3n(C(c3c(F)cc(F)cc3F)C3CCOCC3)c2c1 (single isomer, unassigned) [Example 104, 2-[3-(Dimethyl-1H-1,2,3-triazol-5-yl)-9-fluoro-5-[oxan-4-yl(2,4,6-trifluorophenyl)methyl]-5H-pyrido[3,2-b]indol-7-yl]propan-2-ol]	< 5
Cc1nnn(C)c1-c1cnc2c3c(F)cc(C(C)(C)O)cc3n(C(c3c(F)cc(F)cc3F)C3CCOCC3)c2c1 (single isomer, unassigned) [Example 105, 2-[3-(Dimethyl-1H-1,2,3-triazol-5-yl)-9-fluoro-5-[oxan-4-yl(2,4,6-trifluorophenyl)methyl]-5H-pyrido[3,2-b]indol-7-yl]propan-2-ol]	< 5
Cc1nnn(C)c1-c1cnc2c3c(F)cc(C(C)(C)O)cc3n(C(c3cc(F)ccc3F)C3CCOCC3)c2c1 (single isomer, unassigned) [Example 106, 2-{5-[(2,5-Difluorophenyl)(oxan-4-yl)methyl]-3-(dimethyl-1H-1,2,3-triazol-5-yl)-9-fluoro-5H-pyrido[3,2-b]indol-7-yl}propan-2-ol]	< 5
Cc1nnn(C)c1-c1cnc2c3c(F)cc(C(C)(C)O)cc3n(C(c3cc(F)ccc3F)C3CCOCC3)c2c1 (single isomer, unassigned) [Example 107, 2-{5-[(2,5-Difluorophenyl)(oxan-4-yl)methyl]-3-(dimethyl-1H-1,2,3-triazol-5-yl)-9-fluoro-5H-pyrido[3,2-b]indol-7-yl}propan-2-ol]	< 5
Cc1nnn(C)c1-c1cnc2c3c(F)cc(C(C)(C)O)cc3n(C(c3cccc(F)c3F)C3CCOCC3)c2c1 (single isomer, unassigned) [Example 108, 2-{5-[(2,3-Difluorophenyl)(oxan-4-yl)methyl]-3-(dimethyl-1H-1,2,3-triazol-5-yl)-9-fluoro-5H-pyrido[3,2-b]indol-7-yl}propan-2-ol]	< 5
Cc1nnn(C)c1-c1cnc2c3c(F)cc(C(C)(C)O)cc3n(C(c3cccc(F)c3F)C3CCOCC3)c2c1 (single isomer, unassigned) [Example 109, 2-{5-[(2,3-Difluorophenyl)(oxan-4-yl)methyl]-3-(dimethyl-1H-1,2,3-triazol-5-yl)-9-fluoro-5H-pyrido[3,2-b]indol-7-yl}propan-2-ol]	< 5
Cc1nnn(C)c1-c1cnc2c3c(F)cc(C(C)(C)O)cc3n(C(c3ccc(F)cc3F)C3CCOCC3)c2c1 (single isomer, unassigned) [Example 110, 2-{5-[(2,4-Difluorophenyl)(oxan-4-yl)methyl]-3-(dimethyl-1H-1,2,3-triazol-5-yl)-9-fluoro-5H-pyrido[3,2-b]indol-7-yl}propan-2-ol]	< 5
Cc1nnn(C)c1-c1cnc2c3c(F)cc(C(C)(C)O)cc3n(C(c3ccc(F)cc3F)C3CCOCC3)c2c1 (single isomer, unassigned) [Example 111, 2-{5-[(2,4-Difluorophenyl)(oxan-4-yl)methyl]-3-(dimethyl-1H-1,2,3-triazol-5-yl)-9-fluoro-5H-pyrido[3,2-b]indol-7-yl}propan-2-ol]	< 5
Cc1nnn(C)c1-c1cnc2c3c(F)cc(C(C)(C)O)cc3n(C(c3cccc(F)c3)C3CCOCC3)c2c1 (single isomer, unassigned) [Example 112, 2-[3-(Dimethyl-1H-1,2,3-triazol-5-yl)-9-fluoro-5-[(3-fluorophenyl)(oxan-4-yl)methyl]-5H-pyrido[3,2-b]indol-7-yl]propan-2-ol]	< 5
Cc1nnn(C)c1-c1cnc2c3c(F)cc(C(C)(C)O)cc3n(C(c3cccc(F)c3)C3CCOCC3)c2c1 (single isomer, unassigned) [Example 113, 2-[3-(Dimethyl-1H-1,2,3-triazol-5-yl)-9-fluoro-5-[(3-fluorophenyl)(oxan-4-yl)methyl]-5H-pyrido[3,2-b]indol-7-yl]propan-2-ol]	< 1500
Cc1nnn(C)c1-c1cnc2c3c(S(C)(=O)=O)cccc3n(C(c3ccccc3F)C3CCOCC3)c2c1 (single isomer, unassigned) [Example 115, 5-{5-[(2-Fluorophenyl)(oxan-4-yl)methyl]-9-methanesulfonyl-5H-pyrido[3,2-b]indol-3-yl}-1,4-dimethyl-1H-1,2,3-triazole]	< 5
